Assay results taken from US9644005B2, “Didemnin biosynthetic gene cluster in Tistrella mobilis” (King Abdullah University of Science and Technology, priority 2011, dated 2017).

Legend:
[1] = test system: HCT-116 human colon carcinoma cell; experiment: Cytotoxic activity using HCT-116 human colon carcinoma cell; assay type: cell-based; settings: compounds purified by semi-preparative HPLC; cell line not restated
[2] = test system: herpes simplex virus type 1; settings: DNA and RNA viruses such as herpes simplex virus type 1; cited from earlier work
[3] = test system: murine leukemia cells; settings: cited from earlier work
[4] = phase II human clinical trials; cited from earlier work

Compound	concentration at which strong cytotoxic activity was shown [1] [ng/mL]	antiviral activity [2]	activity against murine leukemia cells [3]	toxicity in human subjects [4]
CC[C@H](C)[C@H]1NC(=O)[C@@H](NC(=O)[C@@H](CC(C)C)N(C)C(=O)[C@@H]2CCCN2C(=O)C(C)O)[C@@H](C)OC(=O)[C@H](Cc2ccc(OC)cc2)N(C)C(=O)[C@@H]2CCCN2C(=O)[C@H](CC(C)C)NC(=O)[C@@H](C)C(=O)[C@H](C(C)C)OC(=O)C[C@@H]1O (some centres unmarked) [didemnin B]	0.074	strong antiviral agent	strong activity	high toxicity
nordidemnin B	0.074			
